Source: the NIST ThermoML archive (doi:10.1016/j.jct.2009.08.002)
± gives the expanded uncertainty stated by the source.

Key:
[1] = molar heat capacity at constant pressure; xn = mol fraction of the nth substance listed; settings: Liquid, Large sample (1 g) DSC, x2 = 0
[2] = molar heat capacity at constant pressure; settings: 298.15 K; 101.33 kPa; Liquid; Large sample (1 g) DSC

Structure (SMILES) | molar heat capacity at constant pressure ([1]; 283.15 K) [J/K/mol] | molar heat capacity at constant pressure ([1]; 288.15 K) [J/K/mol] | molar heat capacity at constant pressure ([1]; 293.15 K) [J/K/mol] | molar heat capacity at constant pressure ([1]; 298.15 K) [J/K/mol] | molar heat capacity at constant pressure ([1]; 303.15 K) [J/K/mol] | molar heat capacity at constant pressure ([1]; 308.15 K) [J/K/mol] | molar heat capacity at constant pressure ([1]; 313.15 K) [J/K/mol] | molar heat capacity at constant pressure ([1]; 318.15 K) [J/K/mol] | molar heat capacity at constant pressure ([1]; 323.15 K) [J/K/mol] | molar heat capacity at constant pressure [2] [J/K/mol]
CC#N [acetonitrile] + CCCCCCn1cc[n+](C)c1.F[B-](F)(F)F | 90.03 ± 1.4 | 90.3 ± 1.4 | 90.6 ± 1.4 | 90.93 ± 1.4 | 91.28 ± 1.4 | 91.66 ± 1.4 | 92.07 ± 1.4 | 92.5 ± 1.4 | 92.96 ± 1.4 | 
CC#N [acetonitrile] |  |  |  |  |  |  |  |  |  | 90.93 ± 1.4
CCCCCCCC[n+]1ccn(C)c1.F[B-](F)(F)F [1-methyl-3-octylimidazolium tetrafluoroborate] |  |  |  |  |  |  |  |  |  | 498.3 ± 11
CC#N [acetonitrile] + CCCCCCCC[n+]1ccn(C)c1.F[B-](F)(F)F | 90.03 ± 1.4 | 90.3 ± 1.4 | 90.6 ± 1.4 | 90.93 ± 1.4 | 91.28 ± 1.4 | 91.66 ± 1.4 | 92.07 ± 1.4 | 92.5 ± 1.4 | 92.96 ± 1.4 | 
CCCCCCn1cc[n+](C)c1.F[B-](F)(F)F [1-hexyl-3-methylimidazolium tetrafluoroborate] |  |  |  |  |  |  |  |  |  | 432 ± 8
